In patent US20250059574A1, “METHODS FOR PREPARING (2S,3R)-P-METHYLSULFONYLPHENYLSERINE” (TAIZHOU UNIVERSITY, priority 2023, published 2025):

Test system: transaldolase (Taizhou Lingfeng Biotechnology Co., Ltd., LF145)
Assay: Effect of acetaldehyde on the activity of transaldolase
Type: biochemical
Settings: reaction 10 min, 35° C., HPLC, without acetaldehyde 3.31 g/L
Experimental: In a 50 mL round-bottom flask, 10 mL of a reaction system contained 14 g/L p-methylsulfonylbenzaldehyde, 10.5 g/L threonine, 1 g/L pyridoxal phosphate, and 1 mL of transaldolase (Taizhou Lingfeng Biotechnology Co., Ltd., LF145), different concentrations (0, 1 g/L, 5 g/L, 10 g/L, and 20 g/L) of acetaldehyde were respectively prepared, the mixture was shaken in a water bath at 35° C. for 10 min, and the content of D-acid produced was detected by HPLC.

CC=O [acetaldehyde]
(2S,3R)-p-methylsulfonylphenylserine produced (1 g/L acetaldehyde added): 1.76 g/L | (2S,3R)-p-methylsulfonylphenylserine produced (5 g/L acetaldehyde added): 0.66 g/L | (2S,3R)-p-methylsulfonylphenylserine produced (10 g/L acetaldehyde added): 0.303 g/L | (2S,3R)-p-methylsulfonylphenylserine produced (20 g/L acetaldehyde added): 0.153 g/L
